Tested on: 624824-186-R-J2-PDC multicell spheroids, viability
Assay: Anticancer human tumor 624824-186-R-J2-PDC patient-derived colon adenocarcinoma cell line growth inhibition [PI3K]
Conditions: for IC50: curve of first compound; for viability, T/C: stronger effect = lower value
Text: Combinatorial screen of targeted agents with the PI3K inhibitors inavolisib, alpelisib, duvelisib, and copanlisib in multi-cell type tumor spheroids
A high-throughput screen of multi-cell type tumor spheroids was designed to identify active combinations of targeted small molecules and PI3K pathway inhibitors. Complex spheroids include a stromal component modeled by human endothelial cells (HUVEC) and fibroblasts modeled by human mesenchymal stem cells (MSCs). The concentration ranges selected for each drug and investigational agent were based upon clinically achievable concentrations if the clinical Cmax of the agent was known.
Compounds. The drugs and investigational agents: inavolisib (NSC800729), alpelisib (NSC765974), duvelisib (NSC772469), copanlisib (NSC816437), ipatasertib (NSC767898), afuresertib (NSC778305), talazoparib (NSC767125), sapanisertib (NSC764658), selumetinib (NSC741078), tovorafenib (DAY101, NSC766906), vemurafenib (NSC761431), ravoxertinib (NSC781343), sotorasib (NSC818433), MRTX1133 (NSC 836407), abemaciclib (NSC 768073), palbociclib (NSC758247), venetoclax (NSC 766270), SY5609 (NSC837396), enzalutamide (NSC755605), and darolutamide (NSC825331), were obtained from the National Cancer Institute (NCI) Developmental Therapeutics Program Chemical Repository. The FDA-approved anticancer drug set is available from the NCI Developmental Therapeutics Program. […] The stock solutions were prepared in dimethyl sulfoxide (DMSO, Sigma-Aldrich, St. Louis, MO, cat. D2650) at 800-fold the tested concentration and stored at -70 degrees C prior to their use. All drugs and investigational agents were tested over a range starting from a high concentration at or near the clinical Cmax and decreasing in half-log increments. If the clinical Cmax for an agent had not been determined, the highest concentration tested was 10 microM.
Cell Culture. All cells were maintained in an incubator at 37 degrees C and 5% CO2 with 95% humidity. The PDC lines were cultured according to standard operating procedures established by the NCI PDMR (https://pdmr.cancer.gov/sops/default.htm). All PDCs were thawed and cultured in Matrigel-coated flasks prepared with a working solution of 1X Ham's F-12 nutrient mix, without supplementation (Invitrogen, Waltham, MA, cat. 11765054), 100 U/mL penicillin-streptomycin (Invitrogen, cat. 15140122), and 2.5% Matrigel (Corning Inc., Corning, NY, cat. 354248) for the first three passages. The 354836-022-R-J1-PDC, 475296-252-R-J1-PDC, and 997726-040-R-J2-PDC lines were cultured in 6A media, which includes advanced DMEM/F-12 (Thermo Fisher Scientific, cat. 12634028), 10 mM HEPES (Thermo Fisher Scientific, cat. 15630080), 1X GlutaMAX supplement (Thermo Fisher Scientific, cat. 35050061), 0.1 mg/mL primocin (InvivoGen, San Diego, CA, cat. ant-pm-2), 10% defined fetal bovine serum, heat inactivated (HyClone Laboratories Inc., Logan, UT, cat. SH30070.03HI), 50% L-WRN conditioned media (ATCC, cat. CRL-3276), 1.25 mM N-Acetyl-L-cysteine (Sigma-Aldrich, cat. A9165), 10 mM nicotinamide (Sigma-Aldrich, cat. N0636), 1X B-27 supplement (Thermo Fisher Scientific, cat. 17504044), 1X N-2 supplement (Thermo Fisher Scientific, cat. 17502048), and 10 microM Y-27632 dihydrochloride (Tocris Bioscience, Bristol, United Kingdom, cat. 1254). The 624824-186-R-J2-PDC line was cultured in 6C/Colon 1B media, which includes all 6A media components plus 50 ng/mL human EGF recombinant protein (Thermo Fisher Scientific, cat. PHG0311). […]

[1] = second compound 0.00316 µM, first compound 0.0316 µM
[2] = second compound 0.00316 µM, first compound 0.1 µM
[3] = second compound 0.00316 µM, first compound 0.316 µM
[4] = second compound 0.00316 µM, first compound 1 µM
[5] = second compound 0.00316 µM, first compound 3.16 µM
[6] = second compound 0.00316 µM, first compound 10 µM
[7] = second compound 0.01 µM, first compound 0.0316 µM
[8] = second compound 0.01 µM, first compound 0.1 µM
[9] = second compound 0.01 µM, first compound 0.316 µM
[10] = second compound 0.01 µM, first compound 1 µM
[11] = second compound 0.01 µM, first compound 3.16 µM
[12] = second compound 0.01 µM, first compound 10 µM
[13] = second compound 0.0316 µM, first compound 0.0316 µM
[14] = second compound 0.0316 µM, first compound 0.1 µM
[15] = second compound 0.0316 µM, first compound 0.316 µM
[16] = second compound 0.0316 µM, first compound 1 µM
[17] = second compound 0.0316 µM, first compound 3.16 µM
[18] = second compound 0.0316 µM, first compound 10 µM
[19] = second compound 0.1 µM, first compound 0.0316 µM
[20] = second compound 0.1 µM, first compound 0.1 µM
[21] = second compound 0.1 µM, first compound 0.316 µM
[22] = second compound 0.1 µM, first compound 1 µM
[23] = second compound 0.1 µM, first compound 3.16 µM
[24] = second compound 0.1 µM, first compound 10 µM
[25] = second compound 0.316 µM, first compound 0.0316 µM
[26] = second compound 0.316 µM, first compound 0.1 µM
[27] = second compound 0.316 µM, first compound 0.316 µM
[28] = second compound 0.316 µM, first compound 1 µM
[29] = second compound 0.316 µM, first compound 3.16 µM
[30] = second compound 0.316 µM, first compound 10 µM
[31] = second compound 1 µM, first compound 0.0316 µM
[32] = second compound 1 µM, first compound 0.1 µM
[33] = second compound 1 µM, first compound 0.316 µM
[34] = second compound 1 µM, first compound 1 µM
[35] = second compound 1 µM, first compound 3.16 µM
[36] = second compound 1 µM, first compound 10 µM
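Further: spheroids exposed to agents for 7 days before viability read.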
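Wherever viability, T/C is given: 100% = DMSO vehicle treated spheroids.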

CC1(C)CCC(CN2CCN(c3ccc(C(=O)NS(=O)(=O)c4ccc(NCC5CCOCC5)c([N+](=O)[O-])c4)c(Oc4cnc5[nH]ccc5c4)c3)CC2)=C(c2ccc(Cl)cc2)C1 + CC(Nc1ccc2c(c1)OCCn1cc(N3C(=O)OCC3C(F)F)nc1-2)C(N)=O
IC50 (second compound 0.00316 µM): > 10 µM
IC50 (second compound 0.01 µM): > 10 µM
IC50 (second compound 0.0316 µM): > 10 µM
IC50 (second compound 0.1 µM): > 10 µM
IC50 (second compound 0.316 µM): > 10 µM
IC50 (second compound 1 µM): > 10 µM
viability, T/C [1]: 88.5%
viability, T/C [2]: 86.8%
viability, T/C [3]: 104%
viability, T/C [4]: 96.9%
viability, T/C [5]: 89.1%
viability, T/C [6]: 77.4%
viability, T/C [7]: 93.3%
viability, T/C [8]: 81.3%
viability, T/C [9]: 123%
viability, T/C [10]: 93.7%
viability, T/C [11]: 75.5%
viability, T/C [12]: 69%
viability, T/C [13]: 81.4%
viability, T/C [14]: 90.5%
viability, T/C [15]: 99.9%
viability, T/C [16]: 72.7%
viability, T/C [17]: 74.5%
viability, T/C [18]: 79.1%
viability, T/C [19]: 72.7%
viability, T/C [20]: 66.9%
viability, T/C [21]: 79.1%
viability, T/C [22]: 66.9%
viability, T/C [23]: 81.1%
viability, T/C [24]: 56.6%
viability, T/C [25]: 79.6%
viability, T/C [26]: 74.2%
viability, T/C [27]: 94.9%
viability, T/C [28]: 77.4%
viability, T/C [29]: 79.1%
viability, T/C [30]: 63%
viability, T/C [31]: 87.1%
viability, T/C [32]: 93.3%
viability, T/C [33]: 79.3%
viability, T/C [34]: 86%
viability, T/C [35]: 94.4%
viability, T/C [36]: 77.8%

C[C@@H](NC(=O)c1ncnc(N)c1Cl)c1ncc(C(=O)Nc2cc(C(F)(F)F)c(Cl)cn2)s1 + CC(Nc1ccc2c(c1)OCCn1cc(N3C(=O)OCC3C(F)F)nc1-2)C(N)=O
IC50 (second compound 0.00316 µM): > 10 µM
IC50 (second compound 0.01 µM): > 10 µM
IC50 (second compound 0.0316 µM): > 10 µM
IC50 (second compound 0.1 µM): > 10 µM
IC50 (second compound 0.316 µM): > 10 µM
IC50 (second compound 1 µM): > 10 µM
viability, T/C [1]: 108%
viability, T/C [2]: 107%
viability, T/C [3]: 73.1%
viability, T/C [4]: 59.5%
viability, T/C [5]: 78%
viability, T/C [6]: 77.9%
viability, T/C [7]: 110%
viability, T/C [8]: 86.4%
viability, T/C [9]: 80.7%
viability, T/C [10]: 72.8%
viability, T/C [11]: 78.8%
viability, T/C [12]: 77.2%
viability, T/C [13]: 92.6%
viability, T/C [14]: 90.5%
viability, T/C [15]: 83%
viability, T/C [16]: 63.5%
viability, T/C [17]: 73.4%
viability, T/C [18]: 78.2%
viability, T/C [19]: 115%
viability, T/C [20]: 99.2%
viability, T/C [21]: 65.7%
viability, T/C [22]: 69.4%
viability, T/C [23]: 77.6%
viability, T/C [24]: 68.7%
viability, T/C [25]: 98%
viability, T/C [26]: 77%
viability, T/C [27]: 68.7%
viability, T/C [28]: 68.5%
viability, T/C [29]: 67.2%
viability, T/C [30]: 56.6%
viability, T/C [31]: 77%
viability, T/C [32]: 93.7%
viability, T/C [33]: 68.4%
viability, T/C [34]: 63.2%
viability, T/C [35]: 55.4%
viability, T/C [36]: 53.1%

Cn1ncnc1[C@H]1c2n[nH]c(=O)c3cc(F)cc(c23)N[C@@H]1c1ccc(F)cc1 + CC(Nc1ccc2c(c1)OCCn1cc(N3C(=O)OCC3C(F)F)nc1-2)C(N)=O
IC50 (second compound 0.00316 µM): > 0.1 µM
IC50 (second compound 0.01 µM): > 0.1 µM
IC50 (second compound 0.0316 µM): > 0.1 µM
IC50 (second compound 0.1 µM): > 0.1 µM
IC50 (second compound 0.316 µM): > 0.1 µM
IC50 (second compound 1 µM): > 0.1 µM
viability, T/C (second compound 0.00316 µM, first compound 0.000316 µM): 78.6%
viability, T/C (second compound 0.00316 µM, first compound 0.001 µM): 115%
viability, T/C (second compound 0.00316 µM, first compound 0.00316 µM): 96.8%
viability, T/C (second compound 0.00316 µM, first compound 0.01 µM): 95.4%
viability, T/C [1]: 94.8%
viability, T/C [2]: 82.2%
viability, T/C (second compound 0.01 µM, first compound 0.000316 µM): 112%
viability, T/C (second compound 0.01 µM, first compound 0.001 µM): 82.4%
viability, T/C (second compound 0.01 µM, first compound 0.00316 µM): 92.9%
viability, T/C (second compound 0.01 µM, first compound 0.01 µM): 90.4%
viability, T/C [7]: 93.1%
viability, T/C [8]: 91.5%
viability, T/C (second compound 0.0316 µM, first compound 0.000316 µM): 96.7%
viability, T/C (second compound 0.0316 µM, first compound 0.001 µM): 97.1%
viability, T/C (second compound 0.0316 µM, first compound 0.00316 µM): 101%
viability, T/C (second compound 0.0316 µM, first compound 0.01 µM): 81.3%
viability, T/C [13]: 90.5%
viability, T/C [14]: 89.5%
viability, T/C (second compound 0.1 µM, first compound 0.000316 µM): 108%
viability, T/C (second compound 0.1 µM, first compound 0.001 µM): 89%
viability, T/C (second compound 0.1 µM, first compound 0.00316 µM): 81.2%
viability, T/C (second compound 0.1 µM, first compound 0.01 µM): 89.8%
viability, T/C [19]: 74.4%
viability, T/C [20]: 84.9%
viability, T/C (second compound 0.316 µM, first compound 0.000316 µM): 90.7%
viability, T/C (second compound 0.316 µM, first compound 0.001 µM): 78%
viability, T/C (second compound 0.316 µM, first compound 0.00316 µM): 81.9%
viability, T/C (second compound 0.316 µM, first compound 0.01 µM): 98.3%
viability, T/C [25]: 74.8%
viability, T/C [26]: 86.1%
viability, T/C (second compound 1 µM, first compound 0.000316 µM): 91.6%
viability, T/C (second compound 1 µM, first compound 0.001 µM): 85.3%
viability, T/C (second compound 1 µM, first compound 0.00316 µM): 90%
viability, T/C (second compound 1 µM, first compound 0.01 µM): 86.2%
viability, T/C [31]: 110%
viability, T/C [32]: 77.9%

Reference: PubChem BioAssay AID1963975 (Molecular Pharmacology Branch, DTP, NCI, 2024)
